Earlier results, collected in patent US6576415B2, “Photothermographic materials with increa sed photosensitivity” (priority 2000, dated 2003).
Like-named read-outs stand apart in the source and are kept apart here.

Compound	Solubility in water (at 15° C.)	Solubility in water (at 20° C.)
[Ag+].[Ag+].[O]=[W](=[O])([O-])[O-] [silver tungstate]	500 µg/mL	
O=P(=O)[O-].[Ag+] [silver metaphosphate]		3200 µg/mL
